Measurements from US5688943A, “Benzodiazepine derivatives useful as CCK-receptor antagonists” (Yamanouchi Pharmaceutical Co., Ltd., priority 1992, dated 1997).

Legend:
CCK-A receptors = target: T1, CCK-A receptors (Rattus norvegicus, UniProt P30551); assay: Measurement of binding affinity for CCK-A receptors ([3H]L-364,718, rat pancreas membranes); design: species or system SD rat; details: [3H]L-364,718, 37° C., 30 minutes, read-out: Receptor binding affinity IC50, CCK-A
T1 construct: The pancreas of an SD rat was homogenized; from tissue; host or cells: SD rat pancreas membranes
T1 sequence (P30551 1-444): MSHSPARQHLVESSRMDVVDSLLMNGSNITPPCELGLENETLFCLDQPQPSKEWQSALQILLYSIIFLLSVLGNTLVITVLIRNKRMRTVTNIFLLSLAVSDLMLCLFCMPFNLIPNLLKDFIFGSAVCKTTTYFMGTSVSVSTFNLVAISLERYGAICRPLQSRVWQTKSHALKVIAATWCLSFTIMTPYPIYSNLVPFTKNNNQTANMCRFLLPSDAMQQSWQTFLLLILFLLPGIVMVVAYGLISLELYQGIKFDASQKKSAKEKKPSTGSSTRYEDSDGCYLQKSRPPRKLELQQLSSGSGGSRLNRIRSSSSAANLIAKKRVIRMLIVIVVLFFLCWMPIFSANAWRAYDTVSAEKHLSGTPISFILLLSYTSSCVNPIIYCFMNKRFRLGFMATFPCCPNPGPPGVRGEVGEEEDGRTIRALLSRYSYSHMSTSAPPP
Method: Measurement of binding affinity for CCK-A receptors
The pancreas of an SD rat was homogenized in a 20-fold volume of 50 mM Tris-HCl buffer (pH 7.7) by the use of a Polytrone-type homogenizer, the homogenate was twice centrifuged for 10 minutes at 50000 g by the use of an ultra-centrifuge, the precipitate thus obtained was suspended in a 40-fold volume of 50 mM Tris-HCl buffer (containing 0.2% BSA, 5 mM MgCl2, 0.1 mg/ml bacitracin and 5 mM DTT; pH 7.7), and the suspension was stored at -80° C. until the membrane preparations were required.
The membrane preparations were then warmed to room temperature, diluted 1:10 with the buffer and incubated at 37° C. for 30 minutes in the presence of [^3 H]L-364,718 and the test compound then separated by suction filtration. Non-specific binding was determined in the presence of 1 μM L-364,718. The amount of labelled ligand bound to the receptor was measured by the use of a liquid scintillation counter; IC50 values were determined, being that concentration of test compound required to inhibit specific binding by 50%
(§1) A high affinity for the CCK-A receptor in a gastrin/CCK-B antagonist is thought to be undesirable as it may lead to side-effects such as cholestasis and gall stone formation during therapy. Therefore it is preferable for the therapeutic agent to be selective for the CCK-B receptor. This selectivity is expressed by the ratio IC50 (CCK-A)/IC50 (CCK-B); the higher the value of this ratio the better is the selectivity.

CCK-B receptors = target: T2, CCK-B receptors (Rattus norvegicus, UniProt P30553); assay: Measurement of binding affinity for CCK-B receptors ([125I]BH-CCK-8, rat brain membranes); design: species or system SD rats; details: for IC50: rat brain membranes, [125I]BH-CCK-8, 25° C., 120 minutes, pH 6.5, read-out: Receptor binding affinity IC50, CCK-B; for A/B Ratio: ratio IC50 (CCK-A)/IC50 (CCK-B)
T2 construct: the whole brain was immediately excised from each of the rats and homogenized; from tissue; host or cells: SD rat whole brain membranes
Method: Measurement of binding affinity for CCK-B receptors
About 100 SD rats were decapitated without anaesthesia, the whole brain was immediately excised from each of the rats and homogenized in 10-fold volume of 0.32M aqueous solution of sucrose by the use of a Teflon-coated homogenizer, the homogenate thus obtained was centrifuged for ten minutes at 900 g by the use of a cooled centrifuge, and the supernatant was further centrifuged for 15 minutes at 11500 g. The precipitate thus obtained was dispersed in 50 mM Tris-HCl buffer (pH 7.4) containing 0.08% Triton X-100, this suspension was allowed to stand for 30 minutes and again centrifuged for 15 minutes at 11500 g, the precipitate thus obtained was washed twice with 5 mM Tris-HCl buffer and twice with 50 mM Tris-HCl buffer in that order with centrifugal separation, the washed precipitate was suspended in 50 mM Tris-HCl buffer, and the suspension thus obtained was stored at -80° C. until the membrane preparation was required.
The membrane preparations were warmed to room temperature, diluted with 10 mM HEPES buffer (containing 130 mM NaCl, 5 mM MgCl2, 1 mM EGTA and 0.25 mg/ml bacitracin; pH 6.5) and incubated at 25° C. for 120 minutes in the presence of [^125 I]BH-CCK-8 and the test compound, then separated by suction filtration. Non-specific binding was determined in the presence of 1 μM CCK-8. The amount of labelled ligand bound to the receptor was measured by the use of a γ-counter; IC50 values were determined, being that concentration of test compound required to inhibit specific binding by 50%.
as §1

T2 sequence (P30553 whole entry): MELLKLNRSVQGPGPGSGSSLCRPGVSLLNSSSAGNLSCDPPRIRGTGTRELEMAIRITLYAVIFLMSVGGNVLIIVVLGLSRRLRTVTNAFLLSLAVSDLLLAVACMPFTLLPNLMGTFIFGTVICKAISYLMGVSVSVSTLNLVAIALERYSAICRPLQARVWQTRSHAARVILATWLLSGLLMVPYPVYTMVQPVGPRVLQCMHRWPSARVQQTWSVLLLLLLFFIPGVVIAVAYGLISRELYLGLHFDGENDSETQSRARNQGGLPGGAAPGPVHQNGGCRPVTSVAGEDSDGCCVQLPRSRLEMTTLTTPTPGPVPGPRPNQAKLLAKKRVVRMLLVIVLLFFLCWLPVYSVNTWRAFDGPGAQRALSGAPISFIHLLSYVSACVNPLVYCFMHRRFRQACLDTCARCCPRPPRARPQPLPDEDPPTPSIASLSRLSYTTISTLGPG

Compound | IC50 (CCK-A receptors) [nM] | IC50 (CCK-B receptors) [nM] | A/B Ratio (CCK-B receptors)
CC(=O)N1CCC[C@H]1C(=O)CN1C(=O)C(NC(=O)Nc2cccc(C)c2)N=C(c2ccccc2)c2ccccc21 (mixture of isomers) [Example 9, N-((3RS)-1-((2S)-1-Acetyl-2-pyrrolidylcarbonylmethyl)-2,3-dihydro-2-oxo-5-phenyl-1H-1,4-benzodiazepin-3-yl)-N'-(3-methylphenyl)urea] | > 10000 | 7.3 | > 1,400
O=C(Nc1cccc(C(=O)O)c1)N[C@@H]1N=C(c2ccccc2)c2ccccc2N(CC(O)C2CCCC2)C1=O (mixture of isomers) [Example 24, N-((3R)-1-((2RS)-2-Cyclopentyl-2-hydroxyethyl)-2,3-dihydro-2-oxo-5-phenyl-1H-1,4-benzodiazepin-3-yl)-N'-(3-carboxyphenyl)urea] | > 10000 | 0.97 | > 10,000
Cc1cccc(NC(=O)N[C@@H]2N=C(c3ccccc3)c3ccccc3N(C[C@H](O)C3CCCC3)C2=O)c1 (racemic) [Example 12, N-((3RS)-1-((2RS)-2-Cyclopentyl-2-hydroxyethyl)-2,3-dihydro-2-oxo-5-phenyl-1H-1,4-benzodiazepin-3-yl)-N'-(3-methylphenyl)urea] | > 10000 | 1.4 | > 7,100
Cc1cccc(NC(=O)N[C@@H]2N=C(c3ccccc3)c3ccccc3N(C[C@@H](O)C3CCCC3)C2=O)c1 (racemic) [Example 13, N-((3RS)-1-((2SR)-2-Cyclopentyl-2-hydroxyethyl)-2,3-dihydro-2-oxo-5-phenyl-1H-1,4-benzodiazepin-3-yl)-N'-(3-methylphenyl)urea] | > 10000 | 0.11 | > 91,000
Cc1cccc(NC(=O)NC2N=C(c3ccccn3)c3ccccc3N(CC(=O)C3CCCC3)C2=O)c1 (racemic) [Example 14, N-((3RS)-1-Cyclopentylcarbonylmethyl-2,3-dihydro-2-oxo-5-(2-pyridyl)-1H-1,4-benzodiazepin-3-yl)-N'-(3-methylphenyl)urea] | – | – | 22,000
O=C(Nc1cccc(C(=O)O)c1)NC1N=C(c2ccccn2)c2ccccc2N(CC(=O)C2CCCC2)C1=O (racemic) [Example 22, N-((3RS)-1-Cyclopentylcarbonylmethyl-2,3-dihydro-2-oxo-5-(2-pyridyl)-1H-1,4-benzodiazepin-3-yl)-N'-(3-carboxyphenyl)urea] | > 10000 | 3.5 | > 2,900
O=C(O)Cc1cccc(NC(=O)NC2N=C(c3ccccc3)c3ccccc3N(CC(=O)C3CCCC3)C2=O)c1 (racemic) [Example 31, N-((3RS)-1-Cyclopentylcarbonylmethyl-2,3-dihydro-2-oxo-5-phenyl-1H-1,4-benzodiazepin-3-yl)-N'-(3-carboxymethylphenyl)urea] | 3400 | 0.53 | 6,400
Cc1cccc(NC(=O)NC2N=C(c3ccccc3)c3ccccc3N(CC(=O)CC3CCCCC3)C2=O)c1 (racemic) [Example 32, N-((3RS)-1-Cyclohexylmethylcarbonylmethyl-2,3-dihydro-2-oxo-5-phenyl-1H-1,4-benzodiazepin-3-yl)-N'-(3-methylphenyl)urea] | 480 | – | 1,700
Cc1cccc(NC(=O)NC2N=C(c3ccccc3)c3ccccc3N(CC(=O)C3(C)CCCCC3)C2=O)c1 (racemic) [Example 34, N-((3RS)-1-((1-Methylcyclohexyl)carbonylmethyl)-2,3-dihydro-2-oxo-5-phenyl-1H-1,4-benzodiazepin-3-yl)-N'-(3-methylphenyl)urea] | > 10000 | – | > 26,000
NC(=O)c1cccc(NC(=O)NC2N=C(c3ccccc3)c3ccccc3N(CC(=O)C3CCCC3)C2=O)c1 (racemic) [Example 35, N-((3RS)-1-Cyclopentylcarbonylmethyl-2,3-dihydro-2-oxo-5-phenyl-1H-1,4-benzodiazepin-3-yl)-N'-(3-carboxamidophenyl)urea] | 1900 | 1.1 | 1,700
COc1cccc(NC(=O)NC2N=C(c3ccccc3)c3ccccc3N(CC(=O)C3CCCC3)C2=O)c1 (racemic) [Example 42, N-((3RS)-1-Cyclopentylcarbonylmethyl-2,3-dihydro-2-oxo-5-phenyl-1H-1,4-benzodiazepin-3-yl)-N'-(3-methoxyphenyl)urea] | 360 | 0.07 | 5,100
O=C(Nc1cccc([N+](=O)[O-])c1)NC1N=C(c2ccccc2)c2ccccc2N(CC(=O)C2CCCC2)C1=O (racemic) [Example 44, N-((3RS)-1-Cyclopentylcarbonylmethyl-2,3-dihydro-2-oxo-5-phenyl-1H-1,4-benzodiazepin-3-yl)-N'-(3-nitrophenyl)urea] | 1600 | 0.17 | 9,400
CC(C)(C)C(=O)CN1C(=O)C(NC(=O)Nc2cccc([N+](=O)[O-])c2)N=C(c2ccccc2)c2ccccc21 (racemic) [Example 45, N-((3RS)-1-tert-Butylcarbonylmethyl-2,3-dihydro-2-oxo-5-phenyl-1H-1,4-benzodiazepin-3-yl)-N'-(3-nitrophenyl)urea] | – | 0.16 | –
Cc1cccc(NC(=O)N[C@@H]2N=C(c3ccccc3)c3ccccc3N(CC(=O)C3CCCC3)C2=O)c1 [Example 17, N-((3R)-1-Cyclopentylcarbonylmethyl-2,3-dihydro-2-oxo-5-phenyl-1H-1,4-benzodiazepin-3-yl)-N'-(3-methylphenyl)urea] | 2500 | 0.07 | 36,000
Cc1cccc(NC(=O)N[C@@H]2N=C(c3ccccc3)c3ccccc3N(C[C@H](O)C3CCCC3)C2=O)c1 [Example 19, N-((3R)-1-((2R)-2-Cyclopentyl-2-hydroxyethyl)-2,3-dihydro-2-oxo-5-phenyl-1H-1,4-benzodiazepin-3-yl)-N'-(3-methylphenyl)urea] | 1 | 0.92 | 1,200
O=C(Nc1cccc(C(=O)O)c1)N[C@@H]1N=C(c2ccccc2)c2ccccc2N(CC(=O)C2CCCC2)C1=O [Example 23, N-((3R)-1-Cyclopentylcarbonylmethyl-2,3-dihydro-2-oxo-5-phenyl-1H-1,4-benzodiazepin-3-yl)-N'-(3-carboxyphenyl)urea] | 870 | 0.08 | 11,000
O=C(Nc1cccc(C(=O)O)c1)N[C@@H]1N=C(c2ccccc2)c2ccccc2N(C[C@H](O)C2CCCC2)C1=O [Example 25, N-((3R)-1-((2R)-2-Cyclopentyl-2-hydroxyethyl)-2,3-dihydro-2-oxo-5-phenyl-1H-1,4-benzodiazepin-3-yl)-N'-(3-carboxyphenyl)urea] | > 10000 | 0.65 | > 15,000
